The supplement of paper PMC7394473

Experiments:
Conditions in all cases: 72 h
U2OS [1] = test: GR50 (concentration giving GR = 0.5)
Description: (§1)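 U2OS cells treated with full dose titrations of drug; live and dead cells counted by STACK microscopy (mKate2 nuclei, SYTOX Green) at 72 h, biological triplicates. GR and FV dose responses were fitted with 4-parameter logistic models (GR lower bound -1). GRADE (0-100) is the rescaled angle of a linear fit of FV versus GR at doses with GR >= 0, giving the percentage of the response due to cell death.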

U2OS [2] = test: fractional viability (live cells / total cells); higher = less cell death
Description: (§2)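 U2OS::Nuc-mKate2 cells seeded in 96-well plates and treated with eight- to ten-point half-log or log dilutions of drug in the presence of 50 nM SYTOX Green. Live (mKate2+) and dead (SYTOX+) cells were counted by IncuCyte STACK live-cell microscopy at 72 h; biological triplicates. GR is the normalised growth-rate inhibition value (Hafner 2016; 1 = untreated growth, <0 = population shrinking). FV is live/(live+dead) cells, not normalised.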

U2OS [3] = test: drug GRADE (percent of response due to cell death) (% (0-100)); higher = more death-driven response
Description: as §1

U2OS [4] = test: GRmin (fitted minimal GR value at highest effect) (GR value (dimensionless)); higher = less efficacious
Description: as §1

U2OS [5] = test: normalized growth rate inhibition value (GR) relative to untreated cells (GR value (dimensionless, 1 = untreated growth)); higher = less growth inhibition
Description: as §2

O=C1NC(=O)[C@@H](c2cn3c4c(cccc24)CCC3)[C@@H]1c1c[nH]c2ccccc12 [Tivantinib]
Conditions | GR50 [µM] | GRmin | drug GRADE
U2OS [1] | 0.169 | – | –
U2OS [3] | – | – | 42.8
U2OS [4] | – | -0.31 | –

Conditions | fractional viability, U2OS [2] | normalized growth rate inhibition value, U2OS [5]
0.00100578 µM | 0.99 | 0.95
0.00317827 µM | 0.991 | 1.03
0.0100433 µM | 0.986 | 0.977
0.0317369 µM | 0.988 | 0.86
0.100289 µM | 0.975 | 0.598
0.316912 µM | 0.844 | 0.299
1.00144 µM | 0.613 | 0.049
3.16456 µM | 0.683 | -0.107
10 µM | 0.481 | -0.3

O=C(O)CCCc1ccc(N(CCCl)CCCl)cc1 [Chlorambucil]
Conditions | fractional viability, U2OS [2] | normalized growth rate inhibition value, U2OS [5]
0.01 µM | 0.983 | 1.08
0.0316 µM | 0.974 | 0.879
0.1 µM | 0.978 | 1.13
0.316 µM | 0.978 | 0.991
1 µM | 0.979 | 0.93
3.16 µM | 0.976 | 0.936
10 µM | 0.976 | 0.925
31.6 µM | 0.967 | 0.838

Conditions | GRmin
U2OS [4] | 0.695

Cc1nc(NC(=O)N2CCC[C@H]2C(N)=O)sc1-c1ccnc(C(C)(C)C(F)(F)F)c1 [Alpelisib]
Conditions | fractional viability, U2OS [2] | normalized growth rate inhibition value, U2OS [5]
0.00100578 µM | 0.986 | 0.96
0.00317827 µM | 0.987 | 0.922
0.0100433 µM | 0.987 | 0.922
0.0317369 µM | 0.985 | 0.903
0.100289 µM | 0.982 | 0.836
0.316912 µM | 0.98 | 0.752
1.00144 µM | 0.971 | 0.794
3.16456 µM | 0.965 | 0.79
10 µM | 0.938 | 0.693

Conditions | GRmin | drug GRADE
U2OS [3] | – | 9
U2OS [4] | 0.695 | –

Nc1ccc(-c2ccc3ncc4ccc(=O)n(-c5cccc(C(F)(F)F)c5)c4c3c2)cn1 [Torin2]
Conditions | fractional viability, U2OS [2] | normalized growth rate inhibition value, U2OS [5]
0.000100578 µM | 0.988 | 0.795
0.000317827 µM | 0.985 | 0.854
0.00100433 µM | 0.986 | 0.924
0.00317369 µM | 0.988 | 0.826
0.0100289 µM | 0.988 | 0.841
0.0316912 µM | 0.989 | 0.85
0.100144 µM | 0.987 | 0.832
0.316456 µM | 0.985 | 0.916
1 µM | 0.971 | 0.523

Conditions | GRmin | drug GRADE
U2OS [3] | – | 4.29
U2OS [4] | -0.853 | –

CC[C@]1(O)C[C@@H]2CN(CCc3c([nH]c4ccccc34)[C@@](C(=O)OC)(c3cc4c(cc3OC)N(C)[C@H]3[C@@](O)(C(=O)OC)[C@H](OC(C)=O)[C@]5(CC)C=CCN6CC[C@]43[C@@H]65)C2)C1 [Vinblastine]
Conditions | fractional viability, 0.00316 µM | fractional viability, 0.0316 µM | fractional viability, 0.316 µM | fractional viability, 3.16 µM | fractional viability, 31.6 µM | normalized growth rate inhibition value, 0.00316 µM | normalized growth rate inhibition value, 0.0316 µM | normalized growth rate inhibition value, 0.316 µM | normalized growth rate inhibition value, 3.16 µM | normalized growth rate inhibition value, 31.6 µM
U2OS [2] | 0.426 | 0.5 | 0.467 | 0.416 | 0.166 | – | – | – | – | –
U2OS [5] | – | – | – | – | – | 0.057 | 0.0629 | 0.0107 | -0.0225 | -0.258

Conditions | drug GRADE
U2OS [3] | 3.36

COc1cc([C@@H]2c3cc4c(cc3[C@@H](O[C@@H]3O[C@@H]5CO[C@@H](C)O[C@H]5[C@H](O)[C@H]3O)[C@H]3COC(=O)[C@H]23)OCO4)cc(OC)c1O [Etoposide]
Conditions | GR50 [µM] | GRmin | drug GRADE
U2OS [1] | 0.0978 | – | –
U2OS [3] | – | – | 8.6
U2OS [4] | – | -0.106 | –

Conditions | fractional viability, U2OS [2] | normalized growth rate inhibition value, U2OS [5]
0.00100578 µM | 0.99 | 0.934
0.00317827 µM | 0.988 | 1.02
0.0100433 µM | 0.993 | 0.895
0.0317369 µM | 0.989 | 0.785
0.100289 µM | 0.975 | 0.524
0.316912 µM | 0.952 | 0.11
1.00144 µM | 0.96 | -0.0401
3.16456 µM | 0.922 | -0.0127
10 µM | 0.628 | -0.155

C[C@H]1[C@H](OC(=O)CCC(=O)O)O[C@@H]2O[C@@]3(C)CC[C@H]4[C@H](C)CC[C@@H]1[C@@]24OO3 [Artesunate]
Conditions | GR50 [µM] | drug GRADE
U2OS [1] | 14.7 | –
U2OS [3] | – | 35.4

Conditions | fractional viability, U2OS [2] | normalized growth rate inhibition value, U2OS [5]
0.01 µM | 0.98 | 1.02
0.0316 µM | 0.974 | 0.827
0.1 µM | 0.976 | 0.944
0.316 µM | 0.972 | 0.928
1 µM | 0.977 | 0.89
3.16 µM | 0.971 | 0.814
10 µM | 0.941 | 0.63
31.6 µM | 0.779 | 0.178

Cc1nc(-c2cn3c(n2)-c2ccc(-c4cnn(C(C)(C)C(N)=O)c4)cc2OCC3)n(C(C)C)n1 [Taselisib]
Conditions | GR50 [µM] | drug GRADE
U2OS [1] | 4.98 | –
U2OS [3] | – | 24.5

Conditions | fractional viability, U2OS [2] | normalized growth rate inhibition value, U2OS [5]
0.00100578 µM | 0.987 | 1
0.00317827 µM | 0.983 | 0.924
0.0100433 µM | 0.979 | 0.852
0.0317369 µM | 0.973 | 0.765
0.100289 µM | 0.964 | 0.83
0.316912 µM | 0.952 | 0.69
1.00144 µM | 0.959 | 0.669
3.16456 µM | 0.937 | 0.604
10 µM | 0.856 | 0.389

COC1CCN(C(=O)c2cc(Cc3n[nH]c(=O)c4ccccc34)ccc2F)CC1 [AZD2461]
Conditions | GR50 [µM] | GRmin | drug GRADE
U2OS [1] | 21.7 | – | –
U2OS [3] | – | – | 13.6
U2OS [4] | – | 0.0439 | –

Conditions | fractional viability, U2OS [2] | normalized growth rate inhibition value, U2OS [5]
0.01 µM | 0.974 | 1.01
0.0316 µM | 0.973 | 0.882
0.1 µM | 0.978 | 0.946
0.316 µM | 0.975 | 0.923
1 µM | 0.972 | 0.93
3.16 µM | 0.97 | 0.849
10 µM | 0.959 | 0.682
31.6 µM | 0.919 | 0.407

Cc1cc(C(C)Nc2ccccc2)c2nc(N3CCOCC3)cc(=O)n2c1 (stereo not given) [TGX221]
Conditions | fractional viability, U2OS [2] | normalized growth rate inhibition value, U2OS [5]
0.00100578 µM | 0.988 | 1.1
0.00317827 µM | 0.986 | 1.06
0.0100433 µM | 0.988 | 1.04
0.0317369 µM | 0.986 | 1.02
0.100289 µM | 0.988 | 0.94
0.316912 µM | 0.99 | 1.02
1.00144 µM | 0.986 | 0.955
3.16456 µM | 0.986 | 1.08
10 µM | 0.977 | 1

Conditions | GRmin
U2OS [4] | 0.951

CC(C)NC[C@@H](C(=O)N1CCN(c2ncnc3c2[C@H](C)C[C@H]3O)CC1)c1ccc(Cl)cc1 [Ipatasertib]
Conditions | fractional viability, U2OS [2] | normalized growth rate inhibition value, U2OS [5]
0.00100578 µM | 0.99 | 0.9
0.00317827 µM | 0.986 | 0.946
0.0100433 µM | 0.986 | 1.14
0.0317369 µM | 0.983 | 0.981
0.100289 µM | 0.986 | 0.885
0.316912 µM | 0.988 | 0.945
1.00144 µM | 0.987 | 0.88
3.16456 µM | 0.976 | 0.824
10 µM | 0.947 | 0.548

Conditions | drug GRADE
U2OS [3] | 6.49

Cc1cc2c(C(=O)NC[C@H](C)c3ccccc3)c(O)c(O)cc2c(O)c1-c1c(C)cc2c(C(=O)NC[C@H](C)c3ccccc3)c(O)c(O)cc2c1O [Sabutoclax]
Conditions | GR50 [µM] | GRmin | drug GRADE
U2OS [1] | 3.32 | – | –
U2OS [3] | – | – | 27.4
U2OS [4] | – | -0.234 | –

Conditions | fractional viability, U2OS [2] | normalized growth rate inhibition value, U2OS [5]
0.01 µM | 0.979 | 0.995
0.0316 µM | 0.983 | 0.971
0.1 µM | 0.982 | 1.12
0.316 µM | 0.975 | 0.844
1 µM | 0.982 | 0.77
3.16 µM | 0.936 | 0.533
10 µM | 0.878 | 0.175
31.6 µM | 0.681 | -0.0541

CCc1cncnc1N1CCN(Cc2nc3ccc(C(F)(F)F)cc3[nH]2)CC1
Conditions | fractional viability, U2OS [2] | normalized growth rate inhibition value, U2OS [5]
0.00100578 µM | 0.988 | 1.06
0.00317827 µM | 0.988 | 0.948
0.0100433 µM | 0.988 | 1.04
0.0317369 µM | 0.988 | 1.02
0.100289 µM | 0.988 | 0.896
0.316912 µM | 0.986 | 1
1.00144 µM | 0.992 | 0.842
3.16456 µM | 0.989 | 0.943
10 µM | 0.98 | 0.734

CC[C@@H]1C(=O)N(C)c2cnc(Nc3ccc(C(=O)N[C@H]4CC[C@H](N5CCN(CC6CC6)CC5)CC4)cc3OC)nc2N1C(C)C [Volasertib]
Conditions | GR50 [µM] | GRmin | drug GRADE
U2OS [1] | 0.0162 | – | –
U2OS [3] | – | – | 17.9
U2OS [4] | – | -0.24 | –

Conditions | fractional viability, U2OS [2] | normalized growth rate inhibition value, U2OS [5]
0.000100578 µM | 0.988 | 0.973
0.000317827 µM | 0.986 | 1.07
0.00100433 µM | 0.987 | 1.1
0.00317369 µM | 0.986 | 1
0.0100289 µM | 0.964 | 0.717
0.0316912 µM | 0.86 | 0.122
0.100144 µM | 0.725 | -0.136
0.316456 µM | 0.563 | -0.25
1 µM | 0.548 | -0.259

CC1CCc2cc(F)cc3c(=O)c(C(=O)O)cn1c23 (stereo not given) [Flumequine]
Conditions | fractional viability, U2OS [2] | normalized growth rate inhibition value, U2OS [5]
0.01 µM | 0.98 | 0.959
0.0316 µM | 0.971 | 1.02
0.1 µM | 0.981 | 0.966
0.316 µM | 0.977 | 0.928
1 µM | 0.971 | 0.907
3.16 µM | 0.974 | 0.962
10 µM | 0.977 | 1.1
31.6 µM | 0.976 | 0.969

Conditions | GRmin
U2OS [4] | 1
